Values quoted from earlier work as cited in patent publication US20070191305A1, “Chromone complexes” (priority 2004, published 2007).

How the values were obtained:
[1] = over the entire pH range

## O=C1CCOc2ccccc21 [Example 4-chromanone, 4-chromanone]
Keratinocyte cultures
  cell differentiation: promotes cell differentiation
  lipid production: stimulates lipid production

## O=c1c(O)c(-c2ccc(O)c(O)c2)oc2cc(O)cc(O)c12 [Quercetin, 3,3′,4′,5,7-pentahydroxyflavone]
[1]
  antioxidant activity amongst the hydroxyflavones investigated: greatest activity
